# Test results published in US20240409585A1, “MACROCYCLIC IMMUNOMODULATORS” (priority 2021, published 2024).
# Bridge positions count the residues as written; N and C are the ends. Square brackets hold non-standard residues; d marks the D form. Peptide text beside a SMILES is read from it. * marks the point of attachment. Tyr(3-NO2) = N[C@@H](Cc1ccc(O)c([N+](=O)[O-])c1)C(=O)O; Phe(4-CONH2) = NC(=O)c1ccc(C[C@H](N)C(=O)O)cc1; Phe(4-COOH) = N[C@@H](Cc1ccc(C(=O)O)cc1)C(=O)O; Bip = N[C@@H](Cc1ccc(-c2ccccc2)cc1)C(=O)O; Phe(3-OMe) = COc1cccc(C[C@H](N)C(=O)O)c1; Phe(4-CN) = N#Cc1ccc(C[C@H](N)C(=O)O)cc1; Ala(2-furyl) = N[C@@H](Cc1ccco1)C(=O)O; Phe(2-F) = N[C@@H](Cc1ccccc1F)C(=O)O; 3Pal = N[C@@H](Cc1cccnc1)C(=O)O; 4Pal = N[C@@H](Cc1ccncc1)C(=O)O; Carboxymethyl = O=C(O)C*; NMeA = CN[C@@H](C)C(=O)O
# Target: T1, PE-labeled human PD-L1-Ig binding to Jurkat cell line over-expressing human PD-1 (Jurkat-PD-1) (Homo sapiens, UniProt Q15116)
# T1 construct: expressed in transfected cells; host or cells: Jurkat
# T1 sequence (Q15116 25-288): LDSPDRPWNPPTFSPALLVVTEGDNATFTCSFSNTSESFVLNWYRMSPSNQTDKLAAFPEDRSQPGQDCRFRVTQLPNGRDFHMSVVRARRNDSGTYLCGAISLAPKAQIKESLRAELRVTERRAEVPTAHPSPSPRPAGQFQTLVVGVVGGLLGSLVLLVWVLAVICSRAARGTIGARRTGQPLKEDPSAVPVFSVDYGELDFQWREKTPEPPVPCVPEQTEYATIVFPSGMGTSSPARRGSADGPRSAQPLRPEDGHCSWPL
# Assay: Jurkat-PD-1 Cell Binding High-Content Screening Assay (CBA): Method 1
# Settings: Jurkat-hPD-1 cells, PE-labeled PD-L1-Ig 20 nM final; read-out: Jurkat HPDL1 PD1 IC50 (uM) (Method 1)
row,IC50 [µM],Structure (SMILES)
1,0.01,CC(C)C[C@@H]1NC(=O)[C@H](Cc2c[nH]c3ccccc23)NC(=O)[C@H](CC(=O)O)NC(=O)[C@H](Cc2ccc(C#N)cc2)NC(=O)[C@H](Cc2ccccc2)NC(=O)CSC[C@@H](C(=O)N[C@@H](C)C(N)=O)NC(=O)[C@H](CO)NC(=O)[C@H](C(C)C)NC(=O)[C@H](CC(C)C)NC(=O)[C@H](CC(N)=O)NC(=O)[C@@H](C)NC(=O)[C@H](C)N(C)C(=O)[C@H](C(C)C)NC(=O)[C@H](Cc2ccc(-c3ccccc3)cc2)NC1=O [Compound 1726] ({CH2CO}-F[Phe(4-CN)]DWL[Bip]V[NMeA][dA]NLVSCA-NH2; thioether N-14)
2,0.01,CC(C)C[C@@H]1NC(=O)[C@H](Cc2c[nH]c3ccccc23)NC(=O)[C@H](CC(=O)O)NC(=O)[C@H](Cc2ccc(O)cc2)NC(=O)[C@H](Cc2ccccc2)NC(=O)CSC[C@@H](C(=O)N[C@@H](C)C(N)=O)NC(=O)[C@H](CO)NC(=O)[C@H](C(C)C)NC(=O)[C@H](CC(C)C)NC(=O)[C@H](CC(N)=O)NC(=O)[C@@H](C)NC(=O)[C@H](C)N(C)C(=O)[C@H](C(C)C)NC(=O)[C@H](Cc2ccc(-c3ccccc3)cc2)NC1=O [Compound 1727] ({CH2CO}-FYDWL[Bip]V[NMeA][dA]NLVSCA-NH2; thioether N-14)
3,0.01,CC(C)C[C@@H]1NC(=O)[C@H](Cc2c[nH]c3ccccc23)NC(=O)[C@H](CC(=O)O)NC(=O)[C@H](Cc2ccc(O)cc2)NC(=O)[C@H](Cc2ccccc2)NC(=O)CSC[C@@H](C(=O)NCC(N)=O)NC(=O)[C@H](CO)NC(=O)[C@H](C(C)C)NC(=O)[C@H](CC(C)C)NC(=O)[C@H](CC(N)=O)NC(=O)[C@@H](C)NC(=O)[C@H](C)N(C)C(=O)[C@H](C(C)C)NC(=O)[C@H](Cc2ccc(-c3ccccc3)cc2)NC1=O [Compound 1729] ({CH2CO}-FYDWL[Bip]V[NMeA][dA]NLVSCG-NH2; thioether N-14)
4,0.01,CC(C)C[C@@H]1NC(=O)[C@H](Cc2c[nH]c3ccccc23)NC(=O)[C@H](CC(=O)O)NC(=O)[C@H](Cc2ccc(O)cc2)NC(=O)[C@H](Cc2ccncc2)NC(=O)CSC[C@@H](C(=O)N[C@@H](C)C(N)=O)NC(=O)[C@H](CO)NC(=O)[C@H](C(C)C)NC(=O)[C@H](CC(C)C)NC(=O)[C@H](CC(N)=O)NC(=O)[C@@H](C)NC(=O)[C@H](C)N(C)C(=O)[C@H](C(C)C)NC(=O)[C@H](Cc2ccc(-c3ccccc3)cc2)NC1=O [Compound 1730] ({CH2CO}-[4Pal]YDWL[Bip]V[NMeA][dA]NLVSCA-NH2; thioether N-14)
5,0.01,CC(C)C[C@@H]1NC(=O)[C@H](Cc2c[nH]c3ccccc23)NC(=O)[C@H](CC(=O)O)NC(=O)[C@H](Cc2ccc(C(=O)O)cc2)NC(=O)[C@H](Cc2ccccc2)NC(=O)CSC[C@@H](C(=O)N[C@@H](C)C(N)=O)NC(=O)[C@H](CO)NC(=O)[C@H](C(C)C)NC(=O)[C@H](CC(C)C)NC(=O)[C@H](CC(N)=O)NC(=O)[C@@H](C)NC(=O)[C@H](C)N(C)C(=O)[C@H](C(C)C)NC(=O)[C@H](Cc2ccc(-c3ccccc3)cc2)NC1=O [Compound 1731] ({CH2CO}-F[Phe(4-COOH)]DWL[Bip]V[NMeA][dA]NLVSCA-NH2; thioether N-14)
6,0.01,COc1cccc(C[C@@H]2NC(=O)[C@H](Cc3ccccc3)NC(=O)CSC[C@@H](C(=O)N[C@@H](C)C(N)=O)NC(=O)[C@H](CO)NC(=O)[C@H](C(C)C)NC(=O)[C@H](CC(C)C)NC(=O)[C@H](CC(N)=O)NC(=O)[C@@H](C)NC(=O)[C@H](C)N(C)C(=O)[C@H](C(C)C)NC(=O)[C@H](Cc3ccc(-c4ccccc4)cc3)NC(=O)[C@H](CC(C)C)NC(=O)[C@H](Cc3c[nH]c4ccccc34)NC(=O)[C@H](CC(=O)O)NC2=O)c1 [Compound 1732] ({CH2CO}-F[Phe(3-OMe)]DWL[Bip]V[NMeA][dA]NLVSCA-NH2; thioether N-14)
7,0.01,CC(C)C[C@@H]1NC(=O)[C@H](C)NC(=O)[C@@H](C)NC(=O)[C@H](C)N(C)C(=O)[C@H](C(C)C)NC(=O)[C@H](Cc2ccc(-c3ccccc3)cc2)NC(=O)[C@H](CC(C)C)NC(=O)[C@H](Cc2c[nH]c3ccccc23)NC(=O)[C@H](CC(=O)O)NC(=O)[C@H](Cc2ccc(O)cc2)NC(=O)[C@H](Cc2ccccc2)NC(=O)CSC[C@@H](C(=O)N[C@@H](C)C(N)=O)NC(=O)[C@H](CO)NC(=O)[C@H](C(C)C)NC1=O [Compound 1733] ({CH2CO}-FYDWL[Bip]V[NMeA][dA]ALVSCA-NH2; thioether N-14)
8,0.01,CC(C)C[C@@H]1NC(=O)[C@H](Cc2c[nH]c3ccccc23)NC(=O)[C@H](CC(=O)O)NC(=O)[C@H](Cc2ccco2)NC(=O)[C@H](Cc2ccccc2)NC(=O)CSC[C@@H](C(=O)N[C@@H](C)C(N)=O)NC(=O)[C@H](CO)NC(=O)[C@H](C(C)C)NC(=O)[C@H](CC(C)C)NC(=O)[C@H](CC(N)=O)NC(=O)[C@@H](C)NC(=O)[C@H](C)N(C)C(=O)[C@H](C(C)C)NC(=O)[C@H](Cc2ccc(-c3ccccc3)cc2)NC1=O [Compound 1734] ({CH2CO}-F[Ala(2-furyl)]DWL[Bip]V[NMeA][dA]NLVSCA-NH2; thioether N-14)
9,0.02,CC(C)C[C@@H]1NC(=O)[C@H](Cc2c[nH]c3ccccc23)NC(=O)[C@H](CC(=O)O)NC(=O)[C@H](Cc2ccccc2F)NC(=O)[C@H](Cc2ccccc2)NC(=O)CSC[C@@H](C(=O)N[C@@H](C)C(N)=O)NC(=O)[C@H](CO)NC(=O)[C@H](C(C)C)NC(=O)[C@H](CC(C)C)NC(=O)[C@H](CC(N)=O)NC(=O)[C@@H](C)NC(=O)[C@H](C)N(C)C(=O)[C@H](C(C)C)NC(=O)[C@H](Cc2ccc(-c3ccccc3)cc2)NC1=O [Compound 1735] ({CH2CO}-F[Phe(2-F)]DWL[Bip]V[NMeA][dA]NLVSCA-NH2; thioether N-14)
10,0.02,CC(C)C[C@@H]1NC(=O)[C@H](Cc2c[nH]c3ccccc23)NC(=O)[C@H](CC(=O)O)NC(=O)[C@H](Cc2ccc(O)cc2)NC(=O)[C@H](Cc2cnc[nH]2)NC(=O)CSC[C@@H](C(=O)N[C@@H](C)C(N)=O)NC(=O)[C@H](CO)NC(=O)[C@H](C(C)C)NC(=O)[C@H](CC(C)C)NC(=O)[C@H](CC(N)=O)NC(=O)[C@@H](C)NC(=O)[C@H](C)N(C)C(=O)[C@H](C(C)C)NC(=O)[C@H](Cc2ccc(-c3ccccc3)cc2)NC1=O [Compound 1736] ({CH2CO}-HYDWL[Bip]V[NMeA][dA]NLVSCA-NH2; thioether N-14)
11,0.02,CC(C)C[C@@H]1NC(=O)[C@H](Cc2c[nH]c3ccccc23)NC(=O)[C@H](CC(=O)O)NC(=O)[C@H](Cc2ccc(OCC(=O)O)cc2)NC(=O)[C@H](Cc2ccccc2)NC(=O)CSC[C@@H](C(=O)N[C@@H](C)C(N)=O)NC(=O)[C@H](CO)NC(=O)[C@H](C(C)C)NC(=O)[C@H](CC(C)C)NC(=O)[C@H](CC(N)=O)NC(=O)[C@@H](C)NC(=O)[C@H](C)N(C)C(=O)[C@H](C(C)C)NC(=O)[C@H](Cc2ccc(-c3ccccc3)cc2)NC1=O [Compound 1737] ({CH2CO}-FY(Carboxymethyl)DWL[Bip]V[NMeA][dA]NLVSCA-NH2; thioether N-14)
12,0.02,CC(C)C[C@@H]1NC(=O)[C@H](Cc2c[nH]c3ccccc23)NC(=O)[C@H](CC(=O)O)NC(=O)[C@H](Cc2ccc(O)c([N+](=O)[O-])c2)NC(=O)[C@H](Cc2ccccc2)NC(=O)CSC[C@@H](C(=O)N[C@@H](C)C(N)=O)NC(=O)[C@H](CO)NC(=O)[C@H](C(C)C)NC(=O)[C@H](CC(C)C)NC(=O)[C@H](CC(N)=O)NC(=O)[C@@H](C)NC(=O)[C@H](C)N(C)C(=O)[C@H](C(C)C)NC(=O)[C@H](Cc2ccc(-c3ccccc3)cc2)NC1=O [Compound 1738] ({CH2CO}-F[Tyr(3-NO2)]DWL[Bip]V[NMeA][dA]NLVSCA-NH2; thioether N-14)
13,0.02,COc1cccc(C[C@@H]2NC(=O)[C@H](CC(=O)O)NC(=O)[C@H](Cc3ccc(O)cc3)NC(=O)[C@H](Cc3ccccc3)NC(=O)CSC[C@@H](C(=O)N[C@@H](C)C(N)=O)NC(=O)[C@H](CO)NC(=O)[C@H](C(C)C)NC(=O)[C@H](CC(C)C)NC(=O)[C@H](CC(N)=O)NC(=O)[C@@H](C)NC(=O)[C@H](C)N(C)C(=O)[C@H](C(C)C)NC(=O)[C@H](Cc3ccc(-c4ccccc4)cc3)NC(=O)[C@H](CC(C)C)NC2=O)c1 [Compound 1739] ({CH2CO}-FYD[Phe(3-OMe)]L[Bip]V[NMeA][dA]NLVSCA-NH2; thioether N-14)
14,0.02,CC(C)C[C@@H]1NC(=O)[C@H](Cc2c[nH]c3ccccc23)NC(=O)[C@H](CC(=O)O)NC(=O)[C@H](Cc2ccc(C(N)=O)cc2)NC(=O)[C@H](Cc2ccccc2)NC(=O)CSC[C@@H](C(=O)N[C@@H](C)C(N)=O)NC(=O)[C@H](CO)NC(=O)[C@H](C(C)C)NC(=O)[C@H](CC(C)C)NC(=O)[C@H](CC(N)=O)NC(=O)[C@@H](C)NC(=O)[C@H](C)N(C)C(=O)[C@H](C(C)C)NC(=O)[C@H](Cc2ccc(-c3ccccc3)cc2)NC1=O [Compound 1740] ({CH2CO}-F[Phe(4-CONH2)]DWL[Bip]V[NMeA][dA]NLVSCA-NH2; thioether N-14)
15,0.02,CC(C)C[C@@H]1NC(=O)[C@H](Cc2c[nH]c3ccccc23)NC(=O)[C@H](CC(=O)O)NC(=O)[C@H](Cc2ccc(O)cc2)NC(=O)[C@H](Cc2cccnc2)NC(=O)CSC[C@@H](C(=O)N[C@@H](C)C(N)=O)NC(=O)[C@H](CO)NC(=O)[C@H](C(C)C)NC(=O)[C@H](CC(C)C)NC(=O)[C@H](CC(N)=O)NC(=O)[C@@H](C)NC(=O)[C@H](C)N(C)C(=O)[C@H](C(C)C)NC(=O)[C@H](Cc2ccc(-c3ccccc3)cc2)NC1=O [Compound 1741] ({CH2CO}-[3Pal]YDWL[Bip]V[NMeA][dA]NLVSCA-NH2; thioether N-14)
16,0.02,CC(C)C[C@@H]1NC(=O)[C@H](CC(N)=O)NC(=O)[C@@H](CC(C)C)NC(=O)[C@H](C)N(C)C(=O)[C@H](CCCNC(=N)N)NC(=O)[C@H](Cc2ccc(-c3ccccc3)cc2)NC(=O)[C@H](C(C)C)NC(=O)[C@H](Cc2c[nH]c3ccccc23)NC(=O)[C@H](CC(=O)O)NC(=O)[C@H](Cc2ccc(O)cc2)NC(=O)[C@H](Cc2ccccc2)NC(=O)CSC[C@@H](C(=O)N[C@@H](C)C(N)=O)NC(=O)[C@H](CO)NC(=O)[C@H](C(C)C)NC1=O [Compound 1742] ({CH2CO}-FYDWV[Bip]R[NMeA][dL]NLVSCA-NH2; thioether N-14)
